Where a SMILES comes first, the peptide text is derived from it.
Assays:
[1] = target: T1, α-syn (Homo sapiens, UniProt P37840); test: ThT fluorescence assay of unseeded α-syn fibrillation in the presence of peptides; type: biochemical; conditions: 1 mg/ml α-syn, 0–0.5 mg/ml peptide, 48 h; for ThT signal end level: unseeded ThT, 37 °C, versus α-syn alone
T1 construct: made in house; host or cells: Escherichia coli BL21 (DE3), plasmid pET11-D
Experimental: To test the effects of these selected nine peptides on the aggregation of α-syn, we performed a thioflavin T (ThT) fluorescence assay in the presence of 1 mg/ml α-syn and 0 to 0.5 mg/ml peptide for 48 h (raw data in Fig. S3). Furthermore, the peptides alone were monitored for self-fibrillation. […] High concentrations of p222, p194, and p249 led to a decline in ThT fluorescence after reaching a plateau, possibly because of the formation of insoluble amorphous species. We also carried out seeding experiments by adding 5% sonicated preaggregated α-syn fibrils to the ThT assay.
About 150 μl of 70 μM (1 mg/ml) α-syn, 40 μM ThT, and varying amounts of peptides (0, 0.06, 0.125, 0. 25, 0.375, and 0.5 mg/ml) were transferred in triplicates to a black COSTAR 96-well clear bottom plate (Nunc, Thermo Fisher Scientific), and including a 3 mm diameter glass bead (Glaswarenfabrik Karl Hecht GmbH & Co KG) per well to increase reproducibility ([100]). The plate was sealed with Crystal Clear sealing tape (Hampton Research) and incubated at 37 °C in a CLARIOstar Plus (BMG LABTECH) fluorescence plate reader. Fibrillation was carried out for ∼48 h with 300 rpm double orbital shaking between the readings for 372 s (excitation/emission: 448∕485 nm). Seeding experiments were performed using the same setting as for the fibrillation assay as described ([39]). Briefly, the experiments were done in triplicates in the presence of 0.05 mg/ml of α-syn fibril seeds (5% seeding) and 1 mg/ml of peptides in a solution of 1 mg/ml α-syn in 96-well plates.

[2] = target: T1, α-syn; test: TEM of α-syn aggregates formed with peptides; type: biochemical; conditions: for Morphology of α-syn aggregates (TEM), in words: α-syn incubated in the presence of peptide; for Morphology (TEM): α-syn aggregates after incubation with peptide, versus α-syn alone
Experimental: Five microliters of each fibril-containing solution were applied to 400-mesh carbon-coated and glow-discharged nickel grids for 30 s, and blotted with filter paper to remove excess sample. The grids were washed with one drop of double distilled water and then stained with 3 μl of 1% uranyl formate for 15 s. Excess stain was removed by blotting paper This step was repeated two more times. Finally, the grids were left to air dry and viewed on a Tecnai G2 Spirit (FEI Company) operating at 60 kV, and images were taken using a TemCam F416 camera (TVIPS).

[3] = Calcein release assay, substance alone; conditions: for Peptide concentration from which membrane toxicity is shown: peptide alone, calcein-filled DOPG LUVs, tested range 10^−1–10^−6 mg/ml
Experimental: (§1) αSOs show cytotoxic properties, which have been attributed to their membrane-disrupting ability ([69]). To examine the effect of peptides on membrane permeabilization by αSOs, we used a simple calcein release assay. αSOs, peptides, and aSO–peptide mixtures at 10^−6 to 10^−1 mg/ml peptide were added to calcein-loaded DOPG vesicle, and the extent of calcein release was monitored for 30 min by the increase in fluorescence as calcein leaks out upon membrane permeabilization, leading to dilution and the loss of self-quenching. The time-dependent calcein release data from DOPG vesicles ([70], [71]) in the presence of peptides, αSOs, and αSO–peptides are shown in Figs. S9 and S10. In order to allow easy comparison of all peptides, the calcein release versus concentration (peptides and αSOs) were plotted at the plateau point of release (Fig. 5, A–C). […] Figure 5D compares calcein release percentages of data represented in Figure 5, A and B at peptide concentrations between 0.001 and 0.1 mg/ml, where we see the largest extent of calcein release in general.
(§2) Calcein-filled vesicles of DOPG were prepared as described before ([38]). Briefly, DOPG was dissolved in PBS to […], in the presence of calcein at self-quenching concentrations (70 mM) and subjected to 10 freeze–thaw cycles between liquid nitrogen and a 50 °C water bath. After 21 times extrusion through a 100 nm filter, free calcein was separated from vesicles with a PD-10 desalting column (GE Healthcare). Vesicles were stored at 4 °C and used for calcein release assays within 24 h.
(§3) Calcein release was measured by mixing peptides and/or αSOs at a final concentration of 10^−6 to 10^−1 mg/ml and 5.2 μg/ml, respectively, in 148 μl with 2 μl of calcein vesicles, and were then loaded onto a 96-well plate (Nunc, Thermo Fischer Scientific) in triplicate. The plate was sealed with Crystal clear sealing tape (Hampton Research), and fluorescence was measured (excitation: 485 nm and emission: 520 nm) for 1 h at 37 °C every 2 min with a 2 s autoshake before each reading on a fluorescence plate reader (Tecan). Finally, 2 μl Triton X-100 (0.2% [v/v]) was added to lyse vesicles, and the maximal fluorescence signal was measured for 20 min under the same reading condition. Background fluorescence was subtracted, and the average signal of calcein release before addition of Triton X-100 (F), after treatment with Triton X-100 (Ft) and for the buffer control (F0) were determined, and calcein release percentage was calculated as follow (Equation 1):(1) CalceinRelease%(CR%)=(F−F0)/(Ft−F0)

[4] = target: T2, αSOs (Homo sapiens, UniProt P37840); test: Calcein release assay, αSOs together with peptides; type: biochemical; conditions: for Effect on vesicle permeabilization by αSOs: αSOs at calcein^50% (5.2 μg/ml)
T2 construct: made in house; host or cells: Escherichia coli BL21 (DE3); oligomers formed by shaking the monomer and isolated by SEC (Superose 6)
Experimental: as §1, §2, §3

[5] = tested on: SH-SY5Y cells; test: MTT cell viability assay, substance alone; conditions: for Cell viability (MTT): SH-SY5Y cells, 35 μg/ml peptide alone, 24 h
Experimental: The effect of the peptides on αSOs toxicity in SH-SY5Y cells using 3-(4, 5-dimethylthiazol-2-yl)-2,5-diphenyltetrazolium bromide (MTT) cell viability assay was also tested to complement our calcein data.
We used the MTT assay to measure cell viability after 24 h treatment with αSOs in the presence of peptides. SH-SY5Y cells were seeded in 96-well plates at a density of 5 × 10^4 cell/ml in Dulbecco's modified Eagle's medium supplemented with 10% FBS, 100 unit/ml penicillin, and […]. The cells were incubated in a humidified atmosphere incubator with 5% CO2 and 95% humidity at 37 °C for 24 h. The culture medium was then replaced with fresh medium containing 10 μM αSOs with peptides and incubated for another 24 h. Then the cell medium was replaced with a fresh medium containing 20% MTT (5 mg/ml), and the cells were incubated for an additional 4 h at 37 °C. Then 100 μl of dimethyl sulfoxide was added to dissolve formazan crystals by incubating for 30 min on a shaker at RT. Consequently, absorbance was measured by using a plate reader at 570 nm.

Compound | Effect on α-syn aggregation (ThT), in words [1] | Morphology of α-syn aggregates (TEM), in words [2] | Peptide concentration from which membrane toxicity is shown [3] | Reduction of αSO-induced membrane permeability ([4]; calcein-filled DOPG LUVs, peptide concentration not stated at the place) [%] | Toxicity to SH-SY5Y cells, in words [5] | Cell viability (MTT) [5] [%] | ThT signal end level [1] | Morphology (TEM) [2] | Effect on vesicle permeabilization by αSOs ([4]; peptide 0.01 and 0.1 mg/ml) | Permeabilization of lipid vesicles by peptide alone ([3]; calcein-loaded DOPG vesicles, 10^−6 to 10^−1 mg/ml peptide, 37 °C, triplicate) | Effect on vesicle permeabilization by αSOs ([4]; peptide 10^−6 to 10^−1 mg/ml)
CC[C@H](C)[C@H](NC(=O)[C@H](Cc1ccccc1)NC(=O)[C@H](Cc1c[nH]c2ccccc12)NC(=O)[C@H](CCCNC(=N)N)NC(=O)[C@H](CC(N)=O)NC(=O)[C@@H](NC(=O)[C@H](CCC(N)=O)NC(=O)[C@H](CCCCN)NC(=O)[C@@H](N)CCSC)[C@@H](C)CC)C(=O)N[C@@H](CCCNC(=N)N)C(=O)N[C@@H](Cc1c[nH]c2ccccc12)C(=O)N[C@@H](CCC(N)=O)C(=O)N[C@@H](CCCCN)C(=O)N[C@@H](CCCCN)C(=O)N[C@@H](CCCNC(=N)N)C(=O)N[C@@H](CCCCN)C(=O)O [p249] (H-MKQINRWFIRWQKKRK-OH; N-terminus and C-terminus assumed) | slight aggregation-promoting effect | nonfibrillar (amorphous) accumulations | > 10^−2 mg/ml | 62 | slight toxicity | 80 | – | – | – | – | –
RQIKIWFQNRRFKWKK [p222] | slight aggregation-promoting effect | needle-shaped and short fibrils | > 10^−4 mg/ml | – | slight toxicity | – | ↑↑ | S, N | increased vesicle permeabilization by αSOs | – | –
CC(C)C[C@H](NC(=O)[C@H](Cc1c[nH]cn1)NC(=O)[C@H](CO)NC(=O)[C@H](CO)NC(=O)[C@H](C)NC(=O)[C@@H](N)CO)C(=O)N[C@@H](Cc1c[nH]cn1)C(=O)N[C@@H](Cc1c[nH]cn1)C(=O)NCC(=O)N[C@@H](Cc1c[nH]cn1)C(=O)N[C@@H](CO)C(=O)NCC(=O)NCC(=O)O [p168] (H-SASSHLHHGHSGG-OH) | did not change the lag phase duration | longer and thinner fibrils | – | – | – | 94 | – | L, T, I | – | did not permeabilize lipid vesicles | failed to affect vesicle permeabilization by αSOs
CC[C@H](C)[C@H](NC(=O)[C@H](Cc1c[nH]c2ccccc12)NC(=O)[C@H](CCCNC(=N)N)NC(=O)[C@H](Cc1c[nH]c2ccccc12)NC(=O)[C@H](CCCCN)NC(=O)[C@@H](NC(=O)[C@H](CCCCN)NC(=O)[C@H](CCC(N)=O)NC(=O)[C@@H](N)CC(N)=O)[C@@H](C)CC)C(=O)N[C@@H](CCC(N)=O)C(=O)N[C@@H](CCCNC(=N)N)C(=O)N[C@@H](Cc1ccccc1)C(=O)N[C@@H](CCCNC(=N)N)C(=O)N[C@@H](CCCCN)C(=O)N[C@@H](CCCCN)C(=O)N[C@@H](CCSC)C(=O)O [p235] (H-NQKIKWRWIQRFRKKM-OH; N-terminus and C-terminus assumed) | slight aggregation-promoting effect | nonfibrillar (amorphous) accumulations | > 10^−2 mg/ml | – | slight toxicity | – | ↑↑ | – | – | – | –
